One series has as its system neuronal cells. To be noted: cited from earlier work.
The next series deals with Malignant Hyperthermia. To be noted: in vivo; cited from earlier work.
The next series in a line: solubility in water. It counts as physicochemical.
Series [1] deals with rats subjected to 60 min of CPB. Briefly: recovery model of cardiopulmonary bypass (CPB) in the rat. It counts as in vivo.
Description: For example, three groups of rats may be subjected to 60 min of normothermic (37.5 degrees C.) nonpulsatile cardiopulmonary bypass (CPB) using a roller pump and a membrane oxygenator. Group 1 rats (n=10) receive no treatment. Group 2 rats (n=10) are pretreated with low volume dantrolene IV, 2.5 mg/kg, and Group 3 rats (n=10) are pretreated with low volume dantrolene IV, 5.0 mg/kg. A fourth group, (Group 4) serve as sham operated controls (n=10). Neurologic outcome is assessed on days 1, 3, and 12 after CPB using standardized functional testing. Neurocognitive outcome, defined as the time (or latency) to finding a submerged platform in a Morris water maze (an indicator of visual-spatial learning and memory), is evaluated daily from post-CPB days 3-12. […]
The next series concerns patients. Description: neurocognitive testing of patients undergoing coronary artery re-vascularization during cardiopulmonary bypass. In kind it is in vivo, humans. To be noted: 1.0 mg/kg of 5% colloidal dantrolene; 24 hours and six weeks post-op.
A short description of the next series: dissolution. It counts as physicochemical.
Series [2] concerns apoptotic nuclei in the cortex of rats given 5 mg/kg kainic acid. As to conditions: quotient A/B as defined in the patent.
Description: In the context of this patent, we define “therapeutic index” of a therapeutic drug (or mixture) to be the quotient A/B, where A and B are defined as follows: A is the LD50 (dose yielding 50% lethality) of the drug when given intraperitoneally to rats; and B is the dose of the drug that when given i.p. yields 50% reduction of apoptotic nuclei in the cortex of rats given 5 mg/kg kainic acid, according to the protocol described by Popescu et al. in [J. Cell.
For a further series, the system named is rats. To be noted: intraperitoneally to rats; cited from earlier work.
The subject of series [3] is apoptotic nuclei in the cortex of rats given 5 mg/kg kainic acid. As to conditions: cited from earlier work.
For series [4] the following is noted: doses as high as 7.5 mg/kg i.v.; cited from earlier work.
Another series has as its system cell culture. To be noted: cited from earlier work.
The subject of series [5] is rats subjected to 60 min of CPB. As to conditions: Ma et al.; cited from earlier work.

Molecules are shown by their SMILES.

Description for patients: Prior to surgery, each patient would be given a battery of nine standard tests designed to measure cognitive function in four broad categories; attention and concentration; verbal memory; abstraction and visual orientation; and figure (numbers) memory. Patients would again administered the same tests 24 hours and six weeks post-operatively. Each assessment would be performed by the same investigator who would be blinded to the patient's study group assignment. At the time of the operation, each patient would be induced of general anesthesia according to a protocol utilizing a modified cardiac/narcotic technique. All agents would be administered on a weight based dose (mg/kg) whenever possible. Volatile anesthetic agents would be administered and regulated by the anesthesiologist via the endotracheal tube to maintain adequate blood and pulse pressures both pre and post bypass, and by the perfusionist during bypass to maintain pressures suitable for adequate tissue perfusion. A standardized protocol by which the operation is to be performed would be designed and applied to each patient enrolled in this study. […]

As for `N#Cc1cc2[nH]c(=O)c(=O)[nH]c2cc1[N+](=O)[O-]` [CNQX], in the series on neuronal cells, the “prevention of kainic-induced neurological damage” value is on record as “prevented”.
With `O=C1CN(/N=C/c2ncc(-c3ccc(Br)cc3)o2)C(=O)N1` [azumolene], the “benefit in the treatment of Malignant Hyperthermia (MH)” value in the series on Malignant Hyperthermia was “limited benefit”.
With `O=C1CN(/N=C/c2ccc(-c3ccc([N+](=O)[O-])cc3)o2)C(O)=N1` [dantrolene sodium], the solubility in “solubility in water” is under 400 µg/mL.
On to `O=C1CN(/N=C/c2ccc(-c3ccc([N+](=O)[O-])cc3)o2)C(O)=N1` [dantrolene], for which the “attenuation of CPB-induced neurologic and neurocognitive dysfunction” value in series [1] (10.0 mg/kg IV 15 min prior to CPB) is reported as “comparable to xenon”. The “neurologic and neurocognitive outcome after CPB” value in series [1] (pretreatment IV at both 2.5 mg/kg and 5.0 mg/kg, days 1-12) was “attenuates CPB associated neurologic and neurocognitive impairment”. The “CPB-induced neurologic and neurocognitive impairment in man” value with patients is “attenuates CPB-induced neurologic and neurocognitive impairment in man”. For the same compound, the “dissolution compared with the sodium salt” value in “dissolution” (listed as Dantrolene free acid) is “slower and less reliable”. The “dissolution compared with the sodium salt” value in “dissolution” (listed as free acid) was “significantly slower and more problematic than that of dantrolene sodium”. In series [2], the “therapeutic index (LD50 / dose for 50% reduction of apoptotic nuclei)” value was determined as 78. In the series with rats, the “LD50 (dose yielding 50% lethality)” value is 780 mg/kg. In addition, in [3] (i.p., rats given 5 mg/kg kainic acid), the “dose yielding 50% reduction of apoptotic nuclei in the cortex” value is recorded as 10 mg/kg. For the same compound, in series [3] (rat, in vivo), the “kainic acid-mediated apoptosis mechanism” value was “inhibits”. Further, the cardiopulmonary depression entry in series [4] is listed as “does not cause cardiopulmonary depression”. In the series on cell culture, the “toxicity induced by NMDA” value is listed as “inhibits”, the “toxicity induced by glutamate” value was “inhibits” and the “toxicity of quisqualate (QA)” value is given as “inhibited”.
Turning to `[Xe]` [xenon], in [5], the “neuroprotection in the rat CPB model” value is reported as “protective”.

For orientation: solubility means the dissolved amount per volume that the medium holds.

The values above are taken from patent publication US10821098B2, “Treatment using dantrolene” (Lyotropic Therapeutics, Inc., priority 2001, dated 2020).
